The record followed here is ChEMBL document CHEMBL1201862, “PubChem BioAssay data set” (2004).

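Grown in 96-well plates, cells were treated for 48 hours with each compound at five concentrations. Insufficient inhibition: endpoint recorded as highest concentration tested. Abbreviation: GI50, concentration required for 50% inhibition of growth.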 Activity calls are given as the source filed them. Cut-off read from the data, not from the text of the source: active = GI50 up to about 1.1 µM and inactive = higher.

Common to all, as to assay: inhibition of tumour cell growth, NCI panel, 48 h
Experiment [1] relates to 786-0.
Experiment [2] deals with A549.
Experiment [3] deals with DU-145.
For experiment [4], the system named is EKVX.
Experiment [5] has as its system HOP-62.
Experiment [6] concerns HT-29.
Experiment [7] relates to Hs-578T.
Experiment [8] has as its system M14.
Experiment [9] has as its system MDA-N.
Experiment [10] deals with OVCAR-3.
Experiment [11] deals with OVCAR-8.
Experiment [12] concerns PC-3.
For experiment [13], the system named is SF-268.
For experiment [14], the system named is SF-539.
For experiment [15], the system named is SK-MEL-5.
The test system of experiment [16] is SK-OV-3.
The test system of experiment [17] is SNB-19.
Experiment [18] has as its system SNB-75.
The test system of experiment [19] is UACC-62.
The test system of experiment [20] is UO-31.

`COc1ccc(N2C(=O)C3c4[nH]c5cccc(Cl)c5c4C4CCC(C(C)(C)C)CC4C3C2=O)cc1` (stereo unspecified): the GI50 was 31.6 µM (inactive) in experiment [1]; > 100 µM (inactive) in [2]; > 100 µM (inactive) in experiment [3]; > 100 µM (inactive) in experiment [4]; 16.3 µM (inactive) in experiment [5]; > 100 µM (inactive) in experiment [6]. Besides, the GI50 is 21.9 µM (inactive) in experiment [7]; > 100 µM (inactive) in [8]; > 100 µM (inactive) in experiment [9]; > 100 µM (inactive) in experiment [10]; 84.3 µM (inactive) in experiment [11]; > 100 µM (inactive) in [12]. For the same compound, the GI50 in experiment [13] is 50.6 µM (inactive); in [14], 64.7 µM (inactive); in experiment [15], > 100 µM (inactive); in experiment [16], 64.9 µM (inactive); in experiment [17], 41.5 µM (inactive); in experiment [18] it was 19.1 µM (inactive). In addition, the GI50 in [19] and in experiment [20] was > 100 µM (inactive) each time.
Consider `CC(=O)c1cc2c(s1)C(=O)c1ccsc1C2=O`, for which the GI50 in experiment [1] is 1.92 µM (inactive); in experiment [2], 2.05 µM (inactive); in experiment [3], 0.309 µM (active); in experiment [4], 1.87 µM (inactive); in experiment [5] it was 0.491 µM (active); in [6] it was 1.85 µM (inactive). Moreover, the GI50 in experiment [7] was 0.158 µM (active); in [8], 0.28 µM (active); in experiment [9], 0.0802 µM (active); in [10], 0.22 µM (active); in experiment [11] it was 0.373 µM (active); in experiment [12], 0.458 µM (active). Further, the GI50 in [13] was 0.301 µM (active); in [14], 0.27 µM (active); in [15], 0.0559 µM (active); in experiment [16], 1.87 µM (inactive); in [17], 0.294 µM (active); in experiment [18], 0.192 µM (active). For the same compound, the GI50 in experiment [19] was 0.255 µM (active); in experiment [20] it was 0.243 µM (active).
Turning to `CSC12c3cc(C)n(-c4ccc(I)cc4)c3CC(C)(C)CN1C(=O)C2Oc1ccccc1` (stereo unspecified), the GI50 in [1] was > 100 µM (inactive); in experiment [2], > 96.4 µM (inactive); in experiment [3], > 100 µM (inactive); in experiment [4], > 67 µM (inactive); in experiment [5] it was > 100 µM (inactive); in experiment [6], > 100 µM (inactive). In addition, the GI50 is > 100 µM (inactive) in experiment [7]; > 100 µM (inactive) in [8]; > 100 µM (inactive) in experiment [9]; > 100 µM (inactive) in [10]; > 100 µM (inactive) in [11]; 98.6 µM (inactive) in experiment [12]. The GI50 in experiment [13] is > 100 µM (inactive); in experiment [14] it was > 100 µM (inactive); in experiment [15], 97.5 µM (inactive); in experiment [16] it was > 100 µM (inactive); in experiment [17], > 100 µM (inactive); in [18], > 100 µM (inactive). In addition, the GI50 in experiment [19] and in [20] was > 100 µM (inactive) throughout.
As for `CC[P+]1(c2ccccc2)[C@@H](C)CC[C@@H]1C`, the GI50 in experiment [1], in experiment [2], in experiment [3], in experiment [4], in [5] and in experiment [6] was > 100 µM (inactive) throughout. Further, the GI50 in [7] was > 100 µM (inactive); in experiment [8], > 100 µM (inactive); in experiment [9], > 100 µM (inactive); in experiment [10] it was 84.1 µM (inactive); in experiment [11], > 100 µM (inactive); in experiment [12], 61.9 µM (inactive). Besides, the GI50 in [13] is > 100 µM (inactive); in [14], > 100 µM (inactive); in experiment [15], 65.2 µM (inactive); in experiment [16] it was > 100 µM (inactive); in [17], > 100 µM (inactive); in experiment [18], > 100 µM (inactive). Moreover, the GI50 in experiment [19] and in experiment [20] was > 100 µM (inactive) throughout.
On to `O=C1CSC(c2ccccc2[N+](=O)[O-])N1c1ccc(-c2ccc(-n3c(-c4ccccc4)nc4ccccc4c3=O)cc2)cc1` (stereo unspecified), for which the GI50 is > 100 µM (inactive) in experiment [1]; > 100 µM (inactive) in [2]; > 100 µM (inactive) in experiment [3]; > 100 µM (inactive) in experiment [4]; > 100 µM (inactive) in [5]; 62.2 µM (inactive) in experiment [6]. Also, the GI50 in experiment [7], in [8], in experiment [9], in experiment [10], in [11] and in experiment [12] was > 100 µM (inactive) throughout. Further, the GI50 in experiment [13] was 45.8 µM (inactive); in experiment [14], 58.6 µM (inactive); in experiment [15], 42 µM (inactive); in experiment [16], > 100 µM (inactive); in [17] it was > 100 µM (inactive); in [18], 18.4 µM (inactive). The GI50 in [19] was 36.6 µM (inactive); in experiment [20], 29.9 µM (inactive).
Consider `Cc1ccc(C2=C(Cl)C(=O)C(c3ccc(C)cc3)=C(Cl)C2=O)cc1`, for which the GI50 in experiment [1], in experiment [2], in experiment [3], in experiment [4], in [5] and in experiment [6] was > 100 µM (inactive) throughout. Besides, the GI50 in experiment [7], in experiment [8], in experiment [9], in experiment [10], in [11] and in [12] was > 100 µM (inactive) each time. In addition, the GI50 in [13], in experiment [14], in [15], in [16], in experiment [17] and in experiment [18] was > 100 µM (inactive) in each case. Besides, the GI50 in experiment [19] and in experiment [20] was > 100 µM (inactive) in each case.
For `COc1ccccc1NC(=O)CC(=O)n1nc(C)c(/N=N/c2ccccc2Cl)c1C`, the GI50 in experiment [1] was > 100 µM (inactive); in experiment [2], > 100 µM (inactive); in experiment [3], > 100 µM (inactive); in [4], > 90.4 µM (inactive); in experiment [5] it was 58.3 µM (inactive); in experiment [6] it was > 100 µM (inactive). For the same compound, the GI50 in experiment [7] is > 100 µM (inactive); in experiment [8], > 100 µM (inactive); in experiment [9], > 31.6 µM (inactive); in experiment [10] it was > 100 µM (inactive); in experiment [11] it was > 100 µM (inactive); in [12], > 100 µM (inactive). Further, the GI50 in experiment [13] is > 76 µM (inactive); in experiment [14], 56.1 µM (inactive); in experiment [15], > 100 µM (inactive); in [16] it was 48.3 µM (inactive); in [17], > 100 µM (inactive); in experiment [18], 25.5 µM (inactive). The GI50 in experiment [19] and in experiment [20] was > 100 µM (inactive) throughout.
For the compound `C[C@@H](c1ccccc1)N1CN(C(=O)OCc2ccccc2)C(CO)C1=O` (stereo partly specified), the GI50 in experiment [1] was > 100 µM (inactive); in [2], > 100 µM (inactive); in [3] it was > 100 µM (inactive); in experiment [4] it was 71.1 µM (inactive); in experiment [5], > 100 µM (inactive); in [6], 70.3 µM (inactive). In addition, the GI50 in [7], in [8], in experiment [9], in [10], in [11] and in experiment [12] was > 100 µM (inactive) in each case. Further, the GI50 in [13], in [14], in experiment [15], in experiment [16], in experiment [17] and in experiment [18] was > 100 µM (inactive) in each case. For the same compound, the GI50 in experiment [19] was > 100 µM (inactive).
As to `O=c1c(-c2c(-c3ccccc3)oc3ccc(Cl)cc3c2=O)c(-c2ccccc2)oc2ccc(Cl)cc12`, the GI50 was > 100 µM (inactive) in [1]; > 100 µM (inactive) in experiment [3]; > 43.9 µM (inactive) in experiment [4]; > 39.7 µM (inactive) in [5]; > 100 µM (inactive) in experiment [6]; > 49.8 µM (inactive) in [7]. The GI50 in experiment [8] was > 100 µM (inactive); in [9], > 100 µM (inactive); in experiment [10], > 100 µM (inactive); in experiment [11], > 74.1 µM (inactive); in [12], > 100 µM (inactive); in experiment [13], > 49.9 µM (inactive). Also, the GI50 in experiment [14] was > 100 µM (inactive); in experiment [15], > 100 µM (inactive); in experiment [16], > 51.4 µM (inactive); in experiment [17], > 100 µM (inactive); in experiment [18], > 44.1 µM (inactive); in experiment [19], > 82.8 µM (inactive).
As to `Cc1ccc(S(=O)(=O)N2C[C@](O)(c3ccccc3)[C@H]2C)cc1`, the GI50 in [1], in experiment [2], in experiment [3], in [4], in experiment [5] and in experiment [6] was > 100 µM (inactive) in each case. The GI50 in experiment [7], in experiment [8], in [9], in [11], in experiment [12] and in experiment [13] was > 100 µM (inactive) throughout. The GI50 was > 100 µM (inactive) in experiment [14]; 51.1 µM (inactive) in [15]; > 100 µM (inactive) in experiment [16]; > 100 µM (inactive) in [17]; 89.3 µM (inactive) in [18]; > 100 µM (inactive) in [19]. The GI50 in [20] was > 100 µM (inactive).
